Test results from patent US5767142A, “Trisbenzimidazoles useful as topoisomerase I inhibitors” (Rutgers, The State University of New Jersey, priority 1996, dated 1998).
pIC50: −log10 of the molar value. “Also recorded” adds a separate entry of the source. Read-outs that look alike come from different tables or passages of the source.

Legend:
[1] = test system: KBV-1 cells (multidrug-resistant variant of KB3-1, overexpress MDR1); assay: MTT cytotoxicity assay, multidrug-resistant KBV-1; format: cell-based, human; conditions: Homo sapiens, KB-V1, 96 h; 4 days continuous drug exposure; read-out: Cytotoxicity IC50, KBV-1
Procedure: (§1) The cytotoxicity was determined using the as MTT-microtiter plate tetrazolinium cytotoxicity assay (MTA) following the procedures of F. Denizot et al., J. Immunol. […] The cytotoxicity assay was performed using 96-well microtiter plates. Cells were grown in suspension at 37° C. in 5% CO2 and maintained by regular passage in RPMI medium supplemented with 10% heat inactivated fetal bovine serum, L-glutamine (2 mM), penicillin (100 U/ml), and streptomycin (0.1 mg/ml). For determination of IC50, cells were exposed continuously with varying concentrations of drug concentrations and MTT assays were performed at the end of the fourth day.
(§2) These cells were grown as monolayer cultures at in 5% CO2 and maintained by regular passage in Dulbecco's minimal essential medium supplemented with 10% heat inactivated fetal bovine serum. KBV-1 cells were similarly maintained except they were grown in the presence of 1 μg/ml vinblastine.

[2] = test system: human lymphoblast RPMI 8402 cells; assay: MTT cytotoxicity assay, RPMI 8402; format: cell-based; conditions: Homo sapiens, RPMI 8402, 96 h; 4 days continuous drug exposure; read-out: Cytotoxicity IC50, RPMI
Procedure: as §1

[3] = test system: KBV-1 cells (multidrug-resistant variant of KB3-1, overexpress MDR1); conditions: cited from earlier work
[4] = test system: human epidermoid carcinoma KB3-1 cell line; conditions: previously reported; read-out: IC50 of Hoechst 33342 in KB 3-1 cells; cited from earlier work
[5] = test system: topoisomerase I; conditions: literature; cited from earlier work
[6] = test system: CPT-K5 cells (camptothecin-resistant variant of RPMI 8402); assay: MTT cytotoxicity assay, camptothecin-resistant CPT-K5; format: cell-based, human
Procedure: as §1

[7] = target: T1, calf thymus topoisomerase I (Bos taurus, UniProt A0AAA9TV68); assay: Topoisomerase I-mediated DNA cleavage assay (calf thymus topoisomerase I, plasmid YEpG); format: biochemical
T1 construct: plasmid YEpG DNA cleavage assay
T1 sequence (A0AAA9TV68 2-769): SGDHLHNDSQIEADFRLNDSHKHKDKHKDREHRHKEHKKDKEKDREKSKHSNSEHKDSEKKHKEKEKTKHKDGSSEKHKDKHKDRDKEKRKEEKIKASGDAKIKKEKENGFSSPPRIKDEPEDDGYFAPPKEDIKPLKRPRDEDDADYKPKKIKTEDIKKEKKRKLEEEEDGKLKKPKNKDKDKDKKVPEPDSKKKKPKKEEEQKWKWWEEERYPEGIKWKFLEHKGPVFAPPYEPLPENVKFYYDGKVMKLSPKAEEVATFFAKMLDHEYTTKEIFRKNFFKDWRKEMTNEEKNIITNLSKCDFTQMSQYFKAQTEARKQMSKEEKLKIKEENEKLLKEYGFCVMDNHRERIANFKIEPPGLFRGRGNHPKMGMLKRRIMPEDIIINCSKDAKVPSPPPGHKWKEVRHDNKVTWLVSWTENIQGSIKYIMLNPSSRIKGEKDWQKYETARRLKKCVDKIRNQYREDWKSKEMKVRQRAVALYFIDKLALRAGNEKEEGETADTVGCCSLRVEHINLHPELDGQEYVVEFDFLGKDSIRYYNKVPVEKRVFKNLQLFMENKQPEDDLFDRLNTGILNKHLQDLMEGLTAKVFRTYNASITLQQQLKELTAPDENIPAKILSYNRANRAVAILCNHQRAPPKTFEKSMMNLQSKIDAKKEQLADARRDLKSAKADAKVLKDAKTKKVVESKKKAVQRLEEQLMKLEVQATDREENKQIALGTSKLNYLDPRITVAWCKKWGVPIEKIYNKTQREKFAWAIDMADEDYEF
Excerpt: DNA topoisomerase I was purified from calf thymus gland as reported previously by B. D. Halligan et al., J. Biol. Chem., 260, 2475 (1985). Plasmid YEpG was also purified by the alkali lysis method followed by phenol deproteination and CsCl/ethidium isopycnic centrifugation as described by T. Mariatis et al., Molecular Cloning, A Laboratory Manual, Cold Spring Harbor Labs, NY (1982) at pages 149-185. The end-labeling of the plasmid was accomplished as previously described by L. F. Liu et al., J. Biol. Chem., 258, 15365 (1983). The cleavage assays were performed as previously reported by A. Y. Chen et al., Cancer Res., 53, 1332 (1993). Human topoisomerase was isolated as a recombinant fusion protein using a T7 expression system.
^b Topoisomerase I cleavage values are reported as REC, Relative
Effective Concentration, i.e. concentrations relative to Hoechst 33342,
whose value is arbitrarily assumed as 1, that are able to produce the sam
cleavage on the plasmid DNA in the presence of calf thymus topoisomerase
I. Cleavage is calculated from the intensity of the strongest Hoechst

[8] = cited from earlier work
[9] = test system: human epidermoid carcinoma KB3-1 cell line; assay: MTT cytotoxicity assay, KB3-1; format: cell-based; conditions: KB 3-1, 96 h, 4 days continuous drug exposure
Procedure: as §1, §2

In the case of `CCOc1ccc(-c2nc3cc(-c4nc5cc(N6CCN(C)CC6)ccc5[nH]4)ccc3[nH]2)cc1` [Hoechst 33342, 2'-(4-ethoxyphenyl)-5-(4-methyl-1-piperazinyl)-2,5'-bi-1H-benzimidazole, reference compound], the pIC50 [1] is given as 5.92, the pIC50 [2] is given as 7.52 and the “Difference of IC50 between KB 3-1 and KB V-1 cells (in words)” value ([3]; as reported by A. Y. Chen et al., Adv. Pharmacol., 245, 29B (1994)) is given as “differs by approximately two-orders of magnitude”. The “less cytotoxic to KB V-1 cells than to KB 3-1 cells” value ([3]; previously reported, KB V-1 overexpress MDR1) was “approximately 130 fold”, the “Efficacy against tumor cell lines which overexpress MDR1 (in words)” value ([3]; previously reported) was “not effective against tumor cell lines which overexpress MDR1” and the pIC50 [4] was ~8.05. For the same molecule, the “Inhibition of topoisomerase I (in words)” value [5] was “is an inhibitor of topoisomerase I; also recorded: traps the reversible cleavable complex derived from DNA and topoisomerase I and produces a limited number of highly specific single-strand DNA breaks”, the “Cytotoxicity against CPT-K5 cells (in words)” value [6] was “effective against camptothecin-resistant CPT-K5 cells” and the “Relative resistance (ratio of IC50 values of resistant versus drug sensitive cell line)” value ([6]; CPT-K5 versus RPMI 8402, 5760 min) was “approximately 30 fold”. For the same molecule, the pIC50 ([6]; Homo sapiens, CPT-K5, 96 h, 4 days continuous drug exposure, read-out: Cytotoxicity IC50, CPT-K5) was 6.05, the “Topo I-mediated DNA cleavage (REC, Relative Effective Concentration)” value [7] was 1 and the “Protonation at physiological pH (in words)” value [8] was “extensively protonated at physiological pH”. For the same molecule, the pIC50 [9] was 8.00.
